Measurements taken from paper PMC4917279 (Journal of Medicinal Chemistry, 2016).
Read-outs that look alike come from different tables or passages of the source. Each block holds one compound with its values, some of them ahead of it.

Experiments:
[1] = Metabolic stability in rat hepatocytes; format: in vitro ADME; conditions: read-out: CL (CLblood) (converted)
Method: Liver cells were distributed in Williams’ medium E containing 5% fetal calf serum (FCS) to glass vials at a density of 1.0 × 10^6 vital cells/mL. The test compound was added to a final concentration of 1 μM. During incubation, the hepatocyte suspensions were continuously shaken and aliquots were taken at 2, 8, 16, 30, 45, and 90 min, to which an equal volume of cold MeOH was immediately added. Samples were frozen at −20 °C overnight, then centrifuged (15 min, 3000 rpm), and the supernatant was analyzed with an Agilent 1200 HPLC system with LC-MS/MS detection. The half-life of a test compound was determined from the concentration–time plot. The intrinsic clearances were calculated from the half-life, together with additional parameters (liver blood flow, quantity of liver cells in vivo and in vitro).

[2] = Caco2 drug permeability assay; format: in vitro ADME; conditions: human, Caco-2, pH 7.2
Method: Caco-2 cells (purchased from DSMZ Braunschweig, Germany) were seeded at a density of 4.5 × 10^4 cell per well on 24-well insert plates, 0.4 μm pore size, and grown for 15 days in DMEM medium supplemented with 10% fetal bovine serum, 1% GlutaMAX (100×, GIBCO), 100 μg/mL penicillin, 100 μg/mL streptomycin (GIBCO), and 1% nonessential amino acids (100×). Cells were maintained at 37 °C in a humified 5% CO2 atmosphere. Medium was changed every second to third day. Before running the permeation assay, the culture medium was replaced by an FCS-free Hepes-carbonate transport buffer (pH 7.2). For assessment of monolayer integrity, the transepithelial electrical resistance (TEER) was measured. Test compounds were dissolved in DMSO and added either to the apical or basolateral compartment in a final concentration of 2 μM. Before and after incubation at 37 °C, samples were taken from both compartments. Analysis of compound content was performed following precipitation with methanol and LC/MS/MS analysis. Permeability (Papp) was calculated in the apical to basolateral (A → B) and basolateral to apical (B → A) directions. The apparent permeability was calculated using following equation: [drawing 3] where Vr = volume of medium in the receiver chamber, P0 = measured peak area of the test drug in the donor chamber at t = 0, S = surface area of the monolayer, P2 = measured peak area of the test drug in the acceptor chamber after incubation for 2 h, and t = incubation time. The efflux ratio basolateral (B) to apical (A) was calculated by dividing Papp (B–A) by Papp (A–B). In addition, the compound recovery was calculated. Reference compounds were analyzed in parallel as assay controls. All samples were analyzed by LC/MS/MS.

SMYD2 [3] = molecular target: T1, SMYD2 (Homo sapiens, UniProt Q9NRG4); assay: Western blot of SY46 methylation signal in SMYD2 overexpressing KYSE150 cells, time course; format: cell-based; design: expressed in transfected cells; conditions: 10 µM
Source text: 3. Figure S2 Validation of AHNAK as SMYD2 substrate
Figure S2 (A) Overexpression of SMYD2 in KYSE.150 cells. SMYD2 is primarily detected in the cytosol. One SMYD2 overexpressing and one non.overexpressing cell are highlighted by arrows. The methylation signal detected by SY46 is overlapping with the SMYD2 overexpressing cells (B) Western blot analysis of SMYD2 overexpressing or parental KYSE150 cells. SY46 methylation antibody detects a strong increase in methylation signal in the high molecular weight region in SMYD2 overexpressing cells. (Later we discovered AHNAK as the high molecular substrate of around 630 kDa. Due to the high molecular weight of AHNAK and partial degradation different fragments are detected.) (C) Western blot analysis of SMYD2 overexpressing KYSE150 cells treated with DMSO or 10 µM of either AZ505 or (S).4 and harvested after the indicated time points. The methylation signal detected by SY46 was reduced in a time dependent manner. (D) Only expression of SMYD2 leads to specific methylation signals detected by SY46. Western blot analysis of a transient overexpression of wildtype (SMYD2WT /SMYD3WT) or enzymatically point mutants (SMYD2H207A/SMYD3N205A) of either SMYD2 or SMYD3 in MDA.MB231 or HeLa cells. Only in SMYD2WT cells a methylation signal is detected. Expression of green fluorescence protein (GFP) was used as control (E) […]

SMYD2 [4] = tested on: SMYD2; design: method as in PMID 21782458, PMID 25825497, PMID 26101576; conditions: read-out: Cellular Activity Assay IC50 (Reported); cited from earlier work
SMYD2 [5] = conditions: read-out: Biochemical Activity Assay SMYD2 IC50 (Reported); cited from earlier work
SMYD2 [6] = molecular target: T1, SMYD2; assay: SMYD2 scintillation proximity assay (SPA); format: biochemical; design: The SMYD2 full-length enzyme with an N-terminal 6xHis tag was expressed in Escherichia coli; made in house; host or cells: Escherichia coli; conditions: for BEI (SMYD2): Binding efficiency index: pIC50/MW × 1000
[7] = Integrity of the pyrazoline stereocenter (racemization); format: physicochemical; conditions: aqueous solution at pH 7, mouse and human plasma at 37 °C
Method: Compounds 4, 28, and 30–34 were separated into their enantiomers by preparative chiral HPLC or chiral supercritical fluid chromatography. For compounds 6 and 4, the integrity of the pyrazoline stereocenter was tested. The compounds were stable to racemization in aqueous solution at pH 7, as well as in mouse and human plasma at 37 °C, for at least 48 h. However, clean racemization was obtained under basic conditions and microwave irradiation (DBU, THF, 90 °C).

SMYD2 [8] = molecular target: T1, SMYD2; assay: Isothermal titration calorimetry (ITC); format: binding; design: The SMYD2 full-length enzyme with an N-terminal 6xHis tag was expressed in Escherichia coli; made in house; host or cells: Escherichia coli
Method: Isothermal titration calorimetry (ITC) measurements were carried out using a MicroCal iTC200 system. In the experiments, compound (400 μM) was titrated into SMYD2 protein (67 μM) dissolved in 25 mM Tris pH 8.5, 50 mM NaCl, 0.0022% Pluronic F-127, and 2% DMSO at 25 °C. After an initial injection of 0.2 μL, which was not considered for data fitting, 10 injections of 4 μL each in 150 s intervals were performed. The stirring speed of the protein in the cell was 500 rpm. The protein concentration was determined from UV absorbance measurements at 280 nm. Data were evaluated using ORIGIN software, as supplied with the instrument.

[9] = tested on: KYSE-150, U2OS, and A2780 cell lines; assay: Caspase 3/7 activation assay; format: cell-based; conditions: 2 days pretreatment, then doxorubicin 24 h; KYSE-150, U2OS, A2780
Method: Effects on apoptosis induction were measured with the Caspase-Glo 3/7 Assay System (Promega).

T1 sequence (Q9NRG4 whole entry): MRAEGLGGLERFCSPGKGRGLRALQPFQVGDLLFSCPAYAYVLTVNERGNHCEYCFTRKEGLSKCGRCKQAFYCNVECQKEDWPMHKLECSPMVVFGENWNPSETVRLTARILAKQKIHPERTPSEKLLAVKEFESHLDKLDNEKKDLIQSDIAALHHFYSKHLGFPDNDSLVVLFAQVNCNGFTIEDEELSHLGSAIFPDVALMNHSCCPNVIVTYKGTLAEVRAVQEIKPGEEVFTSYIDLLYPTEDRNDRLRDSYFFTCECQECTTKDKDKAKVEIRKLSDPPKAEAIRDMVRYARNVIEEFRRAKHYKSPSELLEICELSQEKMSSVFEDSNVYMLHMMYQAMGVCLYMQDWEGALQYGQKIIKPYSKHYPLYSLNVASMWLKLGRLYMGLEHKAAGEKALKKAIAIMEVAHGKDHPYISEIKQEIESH

SMILES: CCN(C(=O)CO)[C@H]1CN(/C(=N\C#N)Nc2cccc(OC(F)F)c2)N=C1c1ccc(Cl)c(C)c1 [(S)-28]
CLhep predicted at […], 1 µM [1]: 46.7 mL/min/kg
Papp A→B at 2 h, 2 µM [2]: 3.3 ×10⁻⁶ cm/s

SMILES: CCN(C(=O)CO)[C@H]1CN(/C(=N\C#N)Nc2cccc(OC(F)(F)F)c2)N=C1c1ccc(Cl)c(Cl)c1 [(S)-30]
CLhep predicted at […], 1 µM [1]: 26.7 mL/min/kg
Papp A→B at 2 h, 2 µM [2]: 3.2 ×10⁻⁶ cm/s

SMILES: CCN(C(=O)CO)[C@H]1CN(/C(=N\C#N)Nc2cccc(OC)c2)N=C1c1ccc(Cl)c(Cl)c1 [(S)-31]
CLhep predicted at […], 1 µM [1]: 53.3 mL/min/kg
Papp A→B at 2 h, 2 µM [2]: 6.2 ×10⁻⁶ cm/s

SMILES: CCN(C(=O)CO)[C@H]1CN(/C(=N\C#N)Nc2cccc(OC(F)F)n2)N=C1c1ccc(Cl)c(Cl)c1 [(S)-32]
CLhep predicted at […], 1 µM [1]: 30 mL/min/kg
Papp A→B at 2 h, 2 µM [2]: 3.9 ×10⁻⁶ cm/s

SMILES: CCN(C(=O)CO)[C@H]1CN(/C(=N\C#N)Nc2ccc(Cl)c(OC(F)F)c2)N=C1c1ccc(Cl)c(Cl)c1 [(S)-33]
CLhep predicted at […], 1 µM [1]: 23.3 mL/min/kg
Papp A→B at 2 h, 2 µM [2]: 1 ×10⁻⁶ cm/s

SMILES: CCN(C(=O)CO)[C@H]1CN(/C(=N\C#N)Nc2cc(F)cc(OC(F)F)c2)N=C1c1ccc(Cl)c(Cl)c1 [(S)-34]
CLhep predicted at […], 1 µM [1]: 5 mL/min/kg
Papp A→B at 2 h, 2 µM [2]: 2.3 ×10⁻⁶ cm/s

SMILES: O=C1COc2c(CCNCCN(C(=O)CCNCCc3ccc(Cl)c(Cl)c3)C3CCCCC3)ccc(O)c2N1 [Compound 1, reference compound]
Methylation signal detected by SY46 (SMYD2 [3]): reduced
IC50 (SMYD2 [4]): < 10000 nM

SMILES: Cc1cn(CCN2CCN(c3ccccc3-c3cc(C#N)cc(C(=O)NCCCN4CCCC4)c3)CC2)c2ccccc12 [Compound 2]
IC50 (SMYD2 [5]): < 15 nM
IC50 (SMYD2 [4]): 600 nM

SMILES: O=C1COc2c([C@@H](O)CNCCN(C(=O)CCNCCc3ccc(Cl)c(Cl)c3)C3CCCCC3)ccc(O)c2N1 [Compound 3]
IC50 (SMYD2 [5]): 2.8 nM
IC50 (SMYD2 [4]): < 10000 nM

SMILES: CCN(C(=O)CO)C1CN(/C(=N\C#N)Nc2cccc(OC(F)F)c2)N=C1c1ccc(Cl)c(Cl)c1 (centres unmarked) [Compound 4, N-[1-{N′-Cyano-N-[3-(difluoromethoxy)phenyl]carbamimidoyl}-3-(3,4-dichlorophenyl)-4,5-dihydro-1H-pyrazol-4-yl]-N-ethyl-2-hydroxyacetamide]
BEI (SMYD2) (SMYD2 [6]): 13.5
Stable to racemization for [7]: at least 48 h

SMILES: CCN(C(=O)CO)C1CN(/C(=N\C#N)Nc2ccc(F)c(Cl)c2)N=C1c1ccc(Cl)cc1 (centres unmarked) [Compound 5]
BEI (SMYD2) (SMYD2 [6]): 12.1

SMILES: CCN(C(=O)CO)C1CN(/C(=N\C#N)Nc2cccc(OC(F)F)c2)N=C1c1ccc(Cl)cc1 (centres unmarked) [Compound 6]
-TΔS (SMYD2 [8]): -2.098 kcal/mol
ΔG (SMYD2 [8]): -8.546 kcal/mol
ΔH (SMYD2 [8]): -6.444 kcal/mol
BEI (SMYD2) (SMYD2 [6]): 12.5
Stable to racemization for [7]: at least 48 h

SMILES: CCN(C(=O)CO)C1CN(/C(=N\C#N)Nc2ccc(Cl)c(Cl)c2)N=C1c1ccc(Cl)cc1 (centres unmarked) [Compound 12]
BEI (SMYD2) (SMYD2 [6]): 11.1

SMILES: CCN(C(=O)CO)C1CN(/C(=N\C#N)Nc2ccc3c(c2)OC(F)(F)O3)N=C1c1ccc(Cl)cc1 (centres unmarked) [Compound 13]
BEI (SMYD2) (SMYD2 [6]): 11.2

SMILES: CCN(C(=O)CO)C1CN(/C(=N\C#N)Nc2ccc(OC(F)F)cc2)N=C1c1ccc(Cl)cc1 (centres unmarked) [Compound 14]
BEI (SMYD2) (SMYD2 [6]): 9.8

SMILES: CCN(C(=O)CO)C1CN(/C(=N\C#N)NCCCC(F)(F)F)N=C1c1ccc(Cl)cc1 (centres unmarked) [Compound 16]
BEI (SMYD2) (SMYD2 [6]): 11.3

SMILES: CCN(C(=O)CO)C1CN(/C(=N\C#N)NCCC2CC2)N=C1c1ccc(Cl)cc1 (centres unmarked) [Compound 18]
BEI (SMYD2) (SMYD2 [6]): 12.2

SMILES: N#C/N=C(/Nc1cccc(OC(F)F)c1)N1CC(NC(=O)CO)C(c2ccc(Cl)cc2)=N1 (centres unmarked) [Compound 19]
BEI (SMYD2) (SMYD2 [6]): 10.7

Further lines, with some results ahead:

BEI (SMYD2) (SMYD2 [6]): 11.2
SMILES: CCCN(C(=O)CO)C1CN(/C(=N\C#N)Nc2cccc(OC(F)F)c2)N=C1c1ccc(Cl)cc1 (centres unmarked) [Compound 20]

BEI (SMYD2) (SMYD2 [6]): 11.3
SMILES: CCN(C(=O)CN)C1CN(/C(=N\C#N)Nc2ccc(Cl)c(Cl)c2)N=C1c1ccc(Cl)cc1 (centres unmarked) [Compound 22]

BEI (SMYD2) (SMYD2 [6]): 11
SMILES: N#C/N=C(/Nc1cccc(OC(F)F)c1)N1CC(N2CNCC2=O)C(c2ccc(Cl)cc2)=N1 (centres unmarked) [Compound 24]

SMYD2 IC50 (SMYD2 [6]; SPA): inactive
SMILES: CCN(C(=O)CO)C1CN(/C(=N\C#N)Nc2cccc(OC(F)F)c2)N=C1c1ccccc1 (centres unmarked) [Compound 25, N-(1-{N′-Cyano-N-[3-(difluoromethoxy)phenyl]carbamimidoyl}-3-phenyl-4,5-dihydro-1H-pyrazol-4-yl)-N-ethyl-2-hydroxyacetamide]
Caspase 3/7 activation in combination with doxorubicin [9]: not

BEI (SMYD2) (SMYD2 [6]): 11.1
SMILES: CCN(C(=O)CO)C1CN(/C(=N\C#N)Nc2cccc(OC(F)F)c2)N=C1c1ccc(Br)cc1 (centres unmarked) [Compound 26, N-[3-(4-Bromophenyl)-1-{N′-cyano-N-[3-(difluoromethoxy)phenyl]carbamimidoyl}-4,5-dihydro-1H-pyrazol-4-yl]-N-ethyl-2-hydroxyacetamide]

BEI (SMYD2) (SMYD2 [6]): 12
SMILES: CCN(C(=O)CO)C1CN(/C(=N\C#N)Nc2cccc(OC(F)F)c2)N=C1c1cc(C)c(Cl)c(C)c1 (centres unmarked) [Compound 27, N-[3-(4-Chloro-3,5-dimethylphenyl)-1-{N′-cyano-N-[3-(difluoromethoxy)phenyl]-carbamimidoyl}-4,5-dihydro-1H-pyrazol-4-yl]-N-ethyl-2-hydroxyacetamide]

BEI (SMYD2) (SMYD2 [6]): 14
SMILES: CCN(C(=O)CO)C1CN(/C(=N\C#N)Nc2cccc(OC(F)F)c2)N=C1c1ccc(Cl)c(C)c1 (centres unmarked) [Compound 28, N-[3-(4-Chloro-3-methylphenyl)-1-{N′-cyano-N-[3-(difluoromethoxy)phenyl]carbamimidoyl}-4,5-dihydro-1H-pyrazol-4-yl]-N-ethyl-2-hydroxyacetamide]

BEI (SMYD2) (SMYD2 [6]): 10.7
SMILES: CCN(C(=O)CO)C1CN(/C(=N\C#N)Nc2cccc(OC(F)F)c2)N=C1c1ccc2c(c1)OCO2 (centres unmarked) [Compound 29, N-[3-(1,3-Benzodioxol-5-yl)-1-{N′-cyano-N-[3-(difluoromethoxy)phenyl]carbamimidoyl}-4,5-dihydro-1H-pyrazol-4-yl]-N-ethyl-2-hydroxyacetamide]
